Data reported in ChEMBL document CHEMBL1201862, “PubChem BioAssay data set” (2004).
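Test compounds were applied to cells in 96-well plates for 48 hours at 5 doses. GI50 is the concentration that inhibits growth by half.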 Active and inactive are the calls of the source. Rule as the data show it: active = GI50 up to about 1.1 µM and inactive = higher.

Tests used:
Test in all cases: growth of human tumour cells (NCI), 48 h
Malme-3M = test system: Malme-3M
UACC-257 = test system: UACC-257
786-0 = test system: 786-0
LOX IMVI = test system: LOX IMVI
SK-OV-3 = test system: SK-OV-3
NCI-H522 = test system: NCI-H522
NCI-H23 = test system: NCI-H23
SF-268 = test system: SF-268
OVCAR-8 = test system: OVCAR-8
RXF 393 = test system: RXF 393
EKVX = test system: EKVX
SF-539 = test system: SF-539
U-251 = test system: U-251
HT-29 = test system: HT-29
NCI-H460 = test system: NCI-H460
SN12C = test system: SN12C
K562 = test system: K562
SF-295 = test system: SF-295

Measured: GI50

CN1CCC(O)C(CNC23CC4CC(CC(C4)C2)C3)C1 (stereo not drawn)
inactive: Malme-3M > 100 µM | UACC-257 > 100 µM | 786-0 > 100 µM | LOX IMVI > 100 µM | SK-OV-3 > 100 µM | NCI-H522 > 100 µM | NCI-H23 > 100 µM | SF-268 > 100 µM | OVCAR-8 > 100 µM | RXF 393 62.2 µM | EKVX > 100 µM | SF-539 > 100 µM | U-251 > 100 µM | HT-29 > 100 µM | NCI-H460 > 100 µM | SN12C > 100 µM | K562 > 100 µM | SF-295 > 100 µM

CN(C)CCNC(=O)c1ccc2ccc3cccnc3c2n1
inactive: Malme-3M 13.5 µM | UACC-257 15.3 µM | 786-0 11.1 µM | LOX IMVI 9.51 µM | SK-OV-3 19.5 µM | NCI-H522 7.23 µM | NCI-H23 17.1 µM | SF-268 16.2 µM | OVCAR-8 8.17 µM | RXF 393 12.8 µM | EKVX 15.5 µM | SF-539 8.63 µM | U-251 16.3 µM | HT-29 9.14 µM | NCI-H460 6.18 µM | SN12C 13.8 µM | K562 21.5 µM | SF-295 18.7 µM

O=S(=O)(Cc1ccccc1)SCc1ccccc1
inactive: Malme-3M 27.3 µM | UACC-257 24.3 µM | 786-0 22.7 µM | LOX IMVI 16.6 µM | SK-OV-3 48.5 µM | NCI-H522 10.7 µM | NCI-H23 23.1 µM | SF-268 36.8 µM | OVCAR-8 15.2 µM | RXF 393 25.8 µM | EKVX 30.2 µM | SF-539 18.3 µM | U-251 26 µM | HT-29 25.4 µM | NCI-H460 27.6 µM | SN12C 24.7 µM | K562 4.91 µM | SF-295 24.7 µM

Cc1ccc(NC(=O)C(=O)Cc2cc[n+]([O-])cc2)cc1
inactive: Malme-3M > 100 µM | UACC-257 > 100 µM | 786-0 > 100 µM | LOX IMVI > 100 µM | SK-OV-3 > 100 µM | NCI-H522 > 100 µM | NCI-H23 > 100 µM | SF-268 > 100 µM | OVCAR-8 > 100 µM | RXF 393 > 100 µM | EKVX > 100 µM | SF-539 > 100 µM | U-251 > 100 µM | HT-29 > 100 µM | NCI-H460 > 100 µM | SN12C > 100 µM | K562 > 100 µM | SF-295 > 100 µM

O=c1c2ccccc2n2n1CC(O)C2 (stereo not drawn)
inactive: Malme-3M 4.56 µM | UACC-257 > 100 µM | 786-0 > 100 µM | LOX IMVI > 100 µM | SK-OV-3 > 100 µM | NCI-H522 > 100 µM | NCI-H23 > 100 µM | SF-268 > 100 µM | OVCAR-8 > 100 µM | RXF 393 > 100 µM | EKVX > 100 µM | SF-539 > 100 µM | U-251 > 100 µM | HT-29 > 100 µM | NCI-H460 > 100 µM | SN12C > 100 µM | K562 > 100 µM | SF-295 > 100 µM

COc1ccc(C#CCC(OC2OC(CO)C(O)C(O)C2O)C(O)c2ccc(OC)c(OC)c2)cc1OC (stereo not drawn)
inactive: Malme-3M > 100 µM | UACC-257 > 100 µM | 786-0 > 100 µM | LOX IMVI 22.8 µM | SK-OV-3 > 100 µM | NCI-H522 > 100 µM | NCI-H23 > 100 µM | SF-268 > 100 µM | OVCAR-8 > 100 µM | RXF 393 > 100 µM | EKVX 81.3 µM | SF-539 > 100 µM | U-251 > 100 µM | HT-29 > 100 µM | NCI-H460 > 100 µM | SN12C > 100 µM | K562 57.4 µM | SF-295 > 100 µM

COC1OC(CO)C(O)C1N (stereo not drawn)
inactive: Malme-3M > 100 µM | UACC-257 > 100 µM | 786-0 > 100 µM | LOX IMVI > 100 µM | SK-OV-3 > 100 µM | NCI-H522 > 100 µM | NCI-H23 > 100 µM | SF-268 > 100 µM | OVCAR-8 > 100 µM | RXF 393 > 100 µM | EKVX > 100 µM | SF-539 > 100 µM | U-251 > 100 µM | HT-29 > 100 µM | NCI-H460 > 100 µM | SN12C > 100 µM | K562 > 100 µM | SF-295 > 100 µM

Cc1ccc(/C=C/C(=O)C(C)(C)CN2CCCCC2)cc1
inactive: Malme-3M 13.3 µM | UACC-257 7.76 µM | 786-0 6 µM | LOX IMVI 9.55 µM | SK-OV-3 11 µM | NCI-H522 3.33 µM | NCI-H23 11.5 µM | SF-268 15.7 µM | OVCAR-8 2.81 µM | RXF 393 5.11 µM | EKVX 3.18 µM | SF-539 4.6 µM | U-251 13.7 µM | HT-29 3.24 µM | NCI-H460 8.28 µM | SN12C 3.9 µM | K562 2.27 µM | SF-295 7.8 µM

Cc1ccc(S(=O)OCc2c(C)c(C)c(COS(=O)c3ccc(C)cc3)c(C)c2C)cc1 (stereo not drawn)
inactive: Malme-3M > 100 µM | UACC-257 > 100 µM | 786-0 > 100 µM | LOX IMVI > 100 µM | SK-OV-3 > 100 µM | NCI-H522 > 100 µM | NCI-H23 > 100 µM | SF-268 > 100 µM | OVCAR-8 > 100 µM | RXF 393 > 100 µM | EKVX > 100 µM | SF-539 > 100 µM | U-251 > 100 µM | HT-29 > 100 µM | NCI-H460 > 100 µM | SN12C > 100 µM | K562 65.5 µM | SF-295 > 100 µM

CCCN(CCCC(NC(C)=O)C(=O)NCc1ccccc1)C(=O)N(C)N=O (stereo not drawn)
inactive: Malme-3M > 100 µM | UACC-257 > 100 µM | 786-0 > 100 µM | LOX IMVI > 100 µM | SK-OV-3 > 100 µM | NCI-H522 > 100 µM | NCI-H23 > 100 µM | SF-268 > 100 µM | OVCAR-8 > 100 µM | RXF 393 > 100 µM | EKVX > 100 µM | SF-539 > 100 µM | U-251 > 100 µM | HT-29 > 100 µM | NCI-H460 > 100 µM | SN12C > 100 µM | K562 > 100 µM | SF-295 > 100 µM

Oc1ccc(I)c2cccnc12
inactive: Malme-3M 7.55 µM | UACC-257 16.3 µM | 786-0 4.88 µM | LOX IMVI 8.26 µM | SK-OV-3 5.07 µM | NCI-H522 1.94 µM | NCI-H23 8.38 µM | SF-268 7.45 µM | OVCAR-8 3.66 µM | RXF 393 6.82 µM | EKVX 9.27 µM | SF-539 12.5 µM | U-251 6.78 µM | HT-29 38.2 µM | NCI-H460 3.95 µM | SN12C 13.4 µM | K562 2.93 µM | SF-295 3.48 µM
